Experimental data: patent publication US11021506B2, “Thiosaccharide mucolytic agents” (The Regents of the University of California, priority 2013, dated 2021)
Entries after “also recorded” stand apart in the source; their conditions may differ.

Key:
[1] = Rheometry: elastic modulus (G′) of pooled induced sputum from healthy subjects; set-up: species or system human; conditions: for effect on elastic modulus G′ (in words): 1 mM (FIG. 1)
Protocol: A rheometer was employed to determine the effect of the compounds disclosed herein on the elastic modulus (G′) of sputum sample from human subjects. The terms “elastic modulus,” “G′,” and the like refer to the elastic modulus as known in the art. Inhalation of 3% saline facilitates mucus expectoration (“induced sputum”) in human subjects, including in healthy subjects without lung disease. A typical sputum induction yields 3-5 mL of sputum, and induced sputum samples can be pooled from several donors in order to provide as much as 20 mL with for any given set of experiments. The rheometer can use 1 mL per assay. Rheological measurements can be made, e.g., with a AR2000 cone-and-plate rheometer (TA Instruments), as known in the art. Patients with cystic fibrosis (CF) are able to spontaneously expectorate sputum samples. […] We typically add the test compound to induced sputum at a 10% v/v, and we calculate effect of the test compound by measuring G′ every 2 minutes for periods up to 20 minutes. Because oxidation can cause baseline drift, we keep the experiment under nitrogen to improve signal to noise ratios. We custom modified a cone and plate rheometer to permit this kind of control in our rheometry experiments. Another protocol element that we use to optimize signal to noise is the addition of protease inhibitors to CF sputum to inhibit protease digestion of mucin. As depicted in FIG. 1, the elastic modulus (G′) of pooled induced sputum from five healthy subjects was determined as a function of time in the presence of 1 mM PBS (phosphate buffered saline), NAC (N-acetylcysteine), Cmpd 1, Cmpd 29, Glc-NAc, and Gal-NAc.

[2] = Rheometry: elastic modulus (G′) of sputum from cystic fibrosis (CF) patients; set-up: species or system human; conditions: for effect on G′ of CF sputum: sputum pooled from three CF patients (FIG. 3); for mucolytic effect: change in elastic modulus G′ (%-change from baseline): twelve-minute test period (FIG. 5A); for mucolytic effect on elastic modulus G′ over 12-minute test period: CF sputum n=5 donors (FIG. 7A); for mucolysis: onset and endpoint (12-minutes), change in G′: single sputum sample from a CF patient (FIG. 6)
Protocol: (§1) A rheometer was employed to determine the effect of the compounds disclosed herein on the elastic modulus (G′) of sputum sample from human subjects. The terms “elastic modulus,” “G′,” and the like refer to the elastic modulus as known in the art. Inhalation of 3% saline facilitates mucus expectoration (“induced sputum”) in human subjects, including in healthy subjects without lung disease. A typical sputum induction yields 3-5 mL of sputum, and induced sputum samples can be pooled from several donors in order to provide as much as 20 mL with for any given set of experiments. The rheometer can use 1 mL per assay. Rheological measurements can be made, e.g., with a AR2000 cone-and-plate rheometer (TA Instruments), as known in the art.
(§2) Patients with cystic fibrosis (CF) are able to spontaneously expectorate sputum samples. […] We typically add the test compound to induced sputum at a 10% v/v, and we calculate effect of the test compound by measuring G′ every 2 minutes for periods up to 20 minutes. Because oxidation can cause baseline drift, we keep the experiment under nitrogen to improve signal to noise ratios. We custom modified a cone and plate rheometer to permit this kind of control in our rheometry experiments. Another protocol element that we use to optimize signal to noise is the addition of protease inhibitors to CF sputum to inhibit protease digestion of mucin. […]
A series of time courses of the change in baseline G′ (%-change from baseline) of sputum samples at 10 mM concentration of MDG and Cmpds 1-5 is depicted in FIG. 6. Each datum in the figure was obtained from a single sputum sample from a patient with cystic fibrosis. […] Moreover, the length of the chain leading to the thiol is important; compare Cmpd 2 (C5 alkylene) vs. Cmpd 3 (C2 alkylene).
A time course of the change in baseline G′ (%-change from baseline) at 10 mM concentration of thiosaccharide is depicted in FIG. 7A. The drugs compared include an unmodified sugar (MDG), Glutathione (GSH, a natural endogenous reducing agent), N-acetyl cysteine (NAC), Cmpd 1 and Cmpd 2.

[3] = Rheometry: disulfide dimer study, elastic modulus (G′) of sputum (source not stated); set-up: species or system human; conditions: 10 mM (FIG. 2)
Protocol: as §1, §2

[4] = Oxidation-reduction potential (ORP) measurement; format: physicochemical; conditions: solutions (1 mM); for Reducing capacity (ORP): ORP probe; for reducing properties (in words): compared to parent sugar (PS) control
Protocol: An INLAB® Redox Micro ORP probe (Mettler Toledo) was employed, which utilizes a small platinum ring indicator electrode and a 3M KCL reference electrolyte. ORP values were determined for thiosaccharides, NAC and glutathione.

[5] = cited from earlier work
[6] = 61 mM, CF sputum n=5 donors, 12 minutes (FIG. 5C)

| Compound | mucolytic effect: change in elastic modulus G′ (%-change from baseline) ([2]; 61 mM, CF sputum n=5 donors) | Reducing capacity (ORP) [4] [mV] | reducing properties (in words) [4] | mucolytic effect on elastic modulus G′ over 12-minute test period ([2]; 10 mM) | mucolysis: onset and endpoint (12-minutes), change in G′ ([2]; 10 mM) | other results |
| --- | --- | --- | --- | --- | --- | --- |
| CO[C@H]1OC(CS)[C@H](O)C(O)C1O (stereo partly drawn) [Cmpd 1, methyl 6-deoxy-6-thio-α-D-galactopyranoside] | decrease the elastic modulus (G′) | 99 | relatively strong reducing capabilities | – | – | decrease in elastic modulus G′ ([1]; 1 mM, during the time course of the experiment (FIG. 1)): ~30%; effect on G′ of CF sputum ([2]; 10 mM): larger than the effect in healthy induced sputum; onset of action ([2]; 61 mM, CF sputum): significantly faster onset of action relative to either parent sugar MDG or NAC; average mucolytic effect at two minutes ([2]; 61 mM, CF sputum n=5 donors, 2 minutes (FIG. 5B)): significantly larger than observed for NAC; also recorded: much larger mucolytic effects than NAC; mucolytic effect at 12 minutes [2, 6]: similar; decrease in elastic modulus G′ of individual sputum samples from CF patients ([2]; individual samples from three CF patients (FIGS. 4A-4D)): ca. 50%; efficacy in reducing elastic modulus G′ (comparison) [3]: more effective in reducing elastic modulus G′ than either the disulfide dimer of Cmpd 1 or Cmpd 6 |
| OCC1O[C@@H](OCCCCCS)C(O)[C@@H](O)[C@H]1O (stereo partly drawn) [Cmpd 2, 5-Thiolpentyl β-D-galactopyranoside] | – | −15 | very strong reducing activity | largest effect | affords a better mucolytic than mannose (Cmpd 5) or glucose (Cmpd 4) | mucolytic effect at two minutes ([2]; 10 mM, CF sputum n=5 donors, 2 minutes (FIG. 7B)): much larger mucolytic effects than NAC; mucolytic effect at 12 minutes ([2]; 10 mM, CF sputum n=5 donors, 12 minutes (FIG. 7C)): significantly greater than observed for NAC; also recorded: significantly greater than for Cmpd 1; also recorded: much larger mucolytic effects than NAC; also recorded: significantly greater than that of Cmpd 1 |
| OCC1O[C@H](OCCCCCS)C(O)[C@@H](O)[C@@H]1O (stereo partly drawn) [Cmpd 4] | – | – | – | – | a galactose moiety (i.e., Cmpd 2) affords a better mucolytic than mannose (Cmpd 5) or glucose (Cmpd 4) | – |
| OCC1O[C@@H](OCCCCCS)C(O)[C@@H](O)[C@@H]1O (stereo partly drawn) [Cmpd 5] | – | – | – | – | a galactose moiety (i.e., Cmpd 2) affords a better mucolytic than mannose (Cmpd 5) or glucose (Cmpd 4) | – |
| CO[C@H]1OC(CO)[C@H](S)[C@H](O)C1O (stereo partly drawn) [Cmpd 29] | – | – | – | – | – | effect on elastic modulus G′ (in words) [1]: approximately half of the decrease in G′ observed with Cmpd 1 |
| N[C@@H](CCC(=O)N[C@@H](CS)C(=O)NCC(=O)O)C(=O)O [GSH, Glutathione] | – | 140 | did not have strong reducing properties | ineffective as mucolytics | – | – |
| CO[C@H]1O[C@H](CO)[C@H](O)[C@H](O)[C@H]1O [MDG, methyl α-D-galactopyranoside, reference compound] | no mucolytic effect | 176 | – | ineffective as mucolytics | – | effect on G′ of CF sputum ([2]; 10 mM): ineffective in decreasing G′ of CF sputum |
| CC(=O)N[C@@H](CS)C(=O)O [NAC, N-Acetylcysteine, reference compound] | decrease the elastic modulus (G′) | 121 | did not have strong reducing properties | no better than control solutions | – | effect on elastic modulus G′ (in words) [1]: not effective in decreasing G′; mucolytic effect at 12 minutes [2, 6]: similar; pKa [5]: 2.2 |
